As to `O=C1CN(C(=O)OCc2ccccc2)CCN1`, the melting point turned out to be 120 °C.

On to `COC(=O)C1CCCc2c1[nH]c1cc(OC)ccc21` (stereo unspecified), for which the melting point is 92 °C. As for `CCCCCCCCCCCCS(=O)(=O)Cl`, the figure is 40.5 °C; as for `CCCCCCCCCCCCCCCCCC(=O)OC(C)C`, 28 °C; as for `O=C1OC(c2ccc(O)c3ccccc23)(c2ccc(O)c3ccccc23)c2ccccc21`, 254 °C. To `O=C(CBr)c1ccsc1` belongs 61 to 62 °C; to `C[C@H](CC=C(c1ccccc1)c1ccccc1)[C@H]1CC[C@H]2[C@@H]3C(O)CC4CC(O)CC[C@]4(C)[C@H]3CC(O)[C@]12C` (stereo partly specified), 220 °C.

`CC(=O)Nc1cc(NC(C)=O)c(OCCO)cc1OCCO`: the melting point amounted to 206 °C. As for `O=C(Cl)c1ccc(-c2cccs2)cc1`, the figure is 113 to 115 °C; as for `Nc1ncccc1C=O`, 101 °C. As for `Cc1nc(-c2cccc(N)c2)no1`, the figure is 95 to 96 °C.

As for `ClC1=CC(c2ccccc2)c2ccccc21` (stereo unspecified), the melting point came to 81 °C.

`COC(=O)C1CC(=O)N(C)C1` (stereo unspecified) showed a melting point of 15 °C. As for `COc1cc(C/C(=N\O)C(=O)O)ccc1O`, the figure is 139 °C; as for `CC1CCC2(OC1)OC1CC3C4CCC5CC(O)CCC5(C)C4CC(=O)C3(C)C1C2C` (stereo unspecified), 266 °C; as for `Nc1ccccc1CN1CCOCC1`, 70 to 71 °C. To `Clc1cc2c(oc3c(Cl)c(Cl)c(Cl)cc32)c(Cl)c1Cl` belongs 240 °C; to `Brc1ccc2oc3ccccc3c2c1`, 110 °C; to `Cc1n[nH]c(SCC(=O)c2ccc(Cl)cc2)n1`, 185 to 188 °C. Compound `O=[N+]([O-])c1c(Cl)ncnc1Cl` gave a melting point of 102 °C. To `CC(=O)Nc1ccc(N)cn1` belongs 154 °C; to `CC1(C)CCC2(C(=O)O)CCC3(C)C(=CCC4C5(C)CCC(O)C(C)(C=O)C5CCC43C)C2C1` (stereo unspecified), 275 °C. To `OCc1cccc2c1OCCCO2` belongs 47 to 48 °C; to `O=C(Oc1ccccc1)c1ccc(C(=O)Oc2ccccc2)cc1`, 197 °C.

As for `CN1CCN(c2ccc(N)cc2)CC1`, the melting point was 92 °C. To `CC(C)(C)OC(=O)C[C@H]1C[C@@H](CC#N)OC(C)(C)O1` belongs 65 to 70 °C; to `Cc1cccnc1C(=O)O`, 119 °C; to `c1ccc(Nc2ccccn2)nc1`, 90.5 °C. As for `N#CCCn1c(=O)oc2ccccc21`, the figure is 118 to 120 °C. To `O=C(O)c1cc(F)c(Cl)cc1F` belongs 153 to 158 °C. Compound `O=S(=O)(Cl)c1ccc2c(c1)OCCO2` came in with a melting point of 66 to 68 °C. For the compound `CC(=O)OCC(=O)C12N=C(C)OC1CC1C3CCC4=CC(=O)C=CC4(C)C3C(O)CC12C` (stereo unspecified), the melting point worked out at 256 °C. `Cc1c(/C=C/c2ccc(Cl)cc2Cl)c2ccccc2n1S(=O)(=O)c1ccccc1` registered a melting point of 110 °C.

Regarding `O=S(=O)(Cl)c1cc2ccccc2o1`, the melting point fell in the range of 79 to 81 °C. As to `NCc1ccc(-c2ccsc2)cc1`, the melting point lay in the range of 116 to 117 °C. To `CCCCCCCCCCCCCCCBr` belongs 19 °C; to `CC(C)(C)OC(=O)N1CCC(C(N)=O)CC1`, 163 to 164 °C.

Compound `CCOC(=O)CSCCC1NC(C(=O)O)CS1` (stereo unspecified) had a melting point of 142 °C. Compound `CC(C)(O)C(=O)c1ccc(OCCO)cc1` yielded a melting point of 89 °C. As for `Cc1cc(C(=O)O)nn1C`, the figure is 175 to 178 °C.

As to `COc1ccc(C(O)C(O)c2ccccc2)cc1` (stereo unspecified), the melting point worked out at 129 °C.

Turning to `O=S1OCCO1`, the melting point was -11 °C.

`CC(=O)C(CC(=O)c1ccccc1)C(=O)c1ccccc1` (stereo unspecified) returned a melting point of 90 °C.

In turn, `CCOc1ccc(NC(=O)C(C(F)(F)F)C(F)(F)F)cc1` showed a melting point of 181 °C. As for `CCCCCCCCC(=O)OCC`, the figure is -36.7 °C; as for `NSCc1cc2ccccc2oc1=O`, 255 °C; as for `O=C1NC(=O)C(=Cc2ccc(Cl)cc2)C(=O)N1`, 243 °C.

`CSc1ccc(-n2c(-c3ccccc3)cc(C(=O)O)c2C)cc1` gave a melting point of 202 to 203 °C. To `Cc1cc(S(N)(=O)=O)ccc1Br` belongs 151 °C; to `CC12CCC(=O)C=C1CCC1C2CCC2(C)C(OCc3ccccc3)CCC12` (stereo unspecified), 198 to 199 °C; to `COc1cc(-c2coc3cc(O)c(OC)c(O)c3c2=O)cc(O)c1OC`, 185 °C.

Take `COc1cc(CCC(C)=NO)ccc1O`: the melting point lay within 82 to 84 °C.

The compound `Cc1ncsc1C(=O)O` gave a melting point of 254 to 255 °C. To `Cc1ccc(C(c2ccc(C)o2)c2cc([N+](=O)[O-])cc(Br)c2O)o1` belongs 153 °C; to `CCCC(C)C(O)CC` (stereo unspecified), -123 °C; to `Cc1cccc(N/N=C2/C(=O)N(c3ccccc3)N=C2C(F)(F)F)c1`, 161 °C. `CNC(=C[N+](=O)[O-])OC` gave a melting point of 116 to 120 °C. To `COc1cc(CC(=O)O)cc(Br)c1O` belongs 183 to 185 °C; to `OCc1cccc2nonc12`, 72 °C.

Take `COc1ccc(C23C(=C(c4ccccc4)c4ccccc4)C4CC2C3(C)C4(C)C)cc1` (stereo unspecified): the melting point turned out to be 124 °C.

The compound `Cc1ccc(S(=O)(=O)NN=Cc2ccccc2[N+](=O)[O-])cc1` registered a melting point of 153 to 156 °C.

On to `CC1CCC(C)(C(=O)CN(C)C(=S)Nc2ccccc2)C1(C)C` (stereo unspecified), for which the melting point is 147 °C. As for `Cn1cc(Br)c(C(=O)O)n1`, the figure is 211 to 213 °C; as for `N#Cc1ccc(Cl)cc1N`, 161 °C; as for `CCCc1ccc(-c2ccccc2)cc1`, 15 to 17 °C.

With `CC(=O)OCC(COC(C)=O)(COC(C)=O)COC(C)=O`, the melting point came out at 83.5 °C.

For the compound `N#Cc1ccc([N+](=O)[O-])cc1C(F)(F)F`, the melting point lay within 52 to 54 °C. As for `O=c1[nH]c2c(c(=O)n1C1CCCCC1)CCC2`, the figure is 316 °C. As for `C=COC(C)C`, the figure is -140 °C. `N[C@@H](CSCC(=O)O)C(=O)O` gave a melting point of 206 °C. `Cc1cc2nc3[nH]c(=O)[nH]c(=O)c3nc2cc1C` came in with a melting point of 300 °C.

As to `CCN(CC)C(N)=O`, the melting point fell in the range of 66 to 71 °C. As for `CCOC(=O)c1cn2nc(OP(=S)(OCC)OCC)cc2nc1C`, the melting point was 51 °C. Compound `COc1ccc(C(=NCc2ccccc2)c2ccc(OC)cc2)cc1` had a melting point of 90 °C. Take `Cc1nc(/C(C#N)=N/Nc2cccc(C(F)(F)F)c2)sc1/N=N/c1ccc(F)cc1`: the melting point was 211 °C. To `CN1CCN(C(=O)CC(c2ccc(Cl)cc2)(c2ccc(Cl)cc2)c2ccc(Cl)cc2)CC1` belongs 214 °C. In turn, `CSc1nc(N)cc(Cl)n1` had a melting point of 130 to 134 °C. The compound `COc1cc(CCNC(=O)Cc2ccc(OC)c(OCc3ccccc3)c2)ccc1OCc1ccccc1` gave a melting point of 140 °C.

Take `C[Si](C)(C)N([Si](C)(C)C)[Si](C)(C)C`: the melting point was in the range of 67 to 69 °C. As for `O=S(=O)(Cl)c1sc(-c2ccccc2)nc1-c1ccccc1`, the figure is 173 to 174 °C; as for `O=C(CCCN1CCC(O)(c2ccc(Br)cc2)CC1)c1ccc(F)cc1`, 155 °C; as for `O=CC12CC=CCC1C1CC=CCC1O2` (stereo unspecified), -80 °C. As for `Cn1ncc2c(NCCN)ncnc21`, the figure is 297 °C. As for `Cc1cc(C)cc(C(=O)N(NC(=O)c2ccccc2)C(C)(C)C)c1`, the figure is 206 °C; as for `N=C(N)NC(N)=O`, 105 °C. For the compound `CCCCc1ccc(/N=N/c2ccc(O)cc2)cc1`, the melting point lay within 49 to 49.5 °C.

Regarding `CCCCCCCCCCCCCCCCCC(=O)OCCOCCOCCOCCO`, the melting point turned out to be 40 °C. `BrCc1ccc(-c2csnn2)cc1`: the melting point lay within 135 to 137 °C. To `CC(=O)C(C(C)=O)=C1SCCS1` belongs 91 °C.

Compound `Nc1cc(Cl)cc(Cl)c1O` displayed a melting point of 97 °C.

`O=P(c1ccccc1)(c1ccccc1)C1C=COC2=C1CCCC2` (stereo unspecified) gave a melting point of 176 to 177 °C. As for `COC(=O)c1cccc(Cl)c1Cl`, the figure is 33 to 38 °C; as for `Cc1ccc(Nc2ccc([N+](=O)[O-])cc2[N+](=O)[O-])cc1`, 140 °C.

Compound `CCOCCOCCOCCO` returned a melting point of -18.7 °C.

Regarding `Clc1cc(Cl)c2ccccc2n1`, the melting point was 67.5 °C. To `NCc1cccc(-c2ccccc2)c1` belongs 28 to 30 °C; to `COc1nc(N)nc(SC)n1`, 200 to 202 °C. As for `NC(=O)Nc1cccc(O)c1`, the figure is 182 to 184 °C; as for `NC(=O)C(Cc1ccc([N+](=O)[O-])cc1)c1ccccc1` (stereo unspecified), 176 °C. As for `O=Cc1cc2nccnc2s1`, the figure is 108 to 109 °C; as for `C=CCC1=C(C)C(OC(=O)C2C(C=C(C)C)C2(C)C)CC1=O` (stereo unspecified), 4 °C; as for `CCCCCCCCCCCCCCCCC=O`, 36 °C. `O=C(O)C1CC1C(=O)Nc1ccc(Cl)cc1Cl` (stereo unspecified) came in with a melting point of 196 °C. As for `N#Cc1ccc(N)c(OC(F)(F)F)c1`, the figure is 72 °C; as for `CSc1nc(N)nc(-c2cnccn2)n1`, 215 °C; as for `Clc1ccc(SCSc2ccc(Cl)cc2)cc1`, 47 °C.

The compound `OC1Cc2cccc(F)c21` (stereo unspecified) yielded a melting point of 56 °C.

Compound `Cc1occc1C(=O)Nc1ccccc1` displayed a melting point of 110 °C. `CCCCCS(=O)CCCCC` came in with a melting point of 58 °C. Regarding `CC(C)S(=O)(=O)O`, the melting point was -37 °C. As for `CC(=O)OCC(COC(C)=O)OC(C)=O`, the figure is 78 °C.

The values are drawn from a melting point compilation (Tetko et al.).
